Consider eleven molecules from patent US20250382296A1, “NITROGEN-CONTAINING FUSED THREE RING PRMT5 INHIBITOR, AND PREPARATION METHOD THEREFOR AND PHARMACEUTICAL USE THEREOF” (Abbisko Therapeutics Co., Ltd., priority 2022, published 2025).

Some results are limits rather than exact numbers.

Test [1] deals with HCT 116 wild-type MTAP cells. The test can be described thus: Inhibition of proliferation of HCT116 wild-type MTAP cells (CellTiter-Glo, 6 days). Particulars: Homo sapiens, HCT-116, 144 h. It counts as cell-based. Here is the method: (§1) 1. HCT 116 MTAP-knockout cells and HCT 116 wild-type MTAP cells were plated in 96-well flat-bottom plates and cultured overnight at 37° C. and […] in McCoy's 5A medium containing 10% fetal bovine serum+1% penicillin-streptomycin.
(§2) 2. The next day, compounds were each dissolved in DMSO, diluted successively with DMSO and medium and then transferred to cell plates; the final concentration of each compound was 10 μM, 4-fold dilution was performed to obtain 9 concentration points, and a DMSO control was provided.
(§3) 3. Cells not treated with compound were subjected to CellTiter-Glo Luminescent Cell Viability Assay (Promega) to detect the cell viability, and reference was made to the kit instructions for the operation; the plates were then placed on an EnVision Multilabel Reader to detect luminescence signals.
(§4) 4. Meanwhile, the cell plates containing cells treated with compounds were cultured continuously at 37° C. and […] CO2 for 6 days.
(§5) 5. Then, the cell viability was also detected by CellTiter-Glo.
(§6) 6. Finally, dose response curves were plotted using the four parameter dose response curve module of GraphPad Prism v 9.2.0 software and proliferation inhibition IC50 (unit: nM) was calculated.
(In ATP-based viability assays light output follows the ATP content of the culture.)

For test [2], the system named is HCT 116 MTAP-knockout cells. Kind of test: Inhibition of proliferation of HCT116 MTAP-knockout cells (CellTiter-Glo, 6 days). The test is classed as cell-based, human. Particulars: for IC50: Homo sapiens, HCT-116, 144 h, proliferation inhibition, HCT116 MTAP-knockout, 6 days, CellTiter-Glo; for Selectivity: IC50 HCT116 wild-type cells / IC50 HCT116 MTAP-knockout cells. Here is the method: as §1, §2, §3, §4, §5, §6

For the molecule `C[Si](C)(C)CCOCn1cc(N(C(=O)c2ccc3nc(N)c4cncn4c3c2)[C@@H]2COc3cc(C(F)(F)F)ccc32)cn1` [Example 217, (S)-4-amino-N-(6-(trifluoromethyl)-2,3-dihydrobenzofuran-3-yl)-N-(1-((2-(trimethylsilyl)ethoxy)methyl)-1H-pyrazol-4-yl)imidazo[1,5-a]quinoxaline-8-carboxamide], the values for the IC50 in test [1] and in test [2] were 0.546 µM and 0.041 µM, respectively. For the same molecule, the Selectivity in test [2] is reported as 13.3.

The molecule `Cn1cc(N(C(=O)c2cc3c(cc2F)nc(N)c2cncn23)[C@@H]2COc3cc(C(F)(F)F)ccc32)cn1` [Example 218, (S)-4-amino-7-fluoro-N-(1-methyl-1H-pyrazol-4-yl)-N-(6-(trifluoromethyl)-2,3-dihydrobenzofuran-3-yl)imidazo[1,5-a]quinoxaline-8-carboxamide] yielded an IC50 in test [1] of 0.047 µM. Also, in test [2], the midpoint of inhibition, the IC50, lay at 0.002 µM and the Selectivity was found to be 23.5.

Molecule `Cn1cc(N(C(=O)c2cc3c(cc2F)nc(N)c2cncn23)[C@@H]2COc3nc(C(F)(F)F)ccc32)cn1` [Example 219, (S)-4-amino-7-fluoro-N-(1-methyl-1H-pyrazol-4-yl)-N-(6-(trifluoromethyl)-2,3-dihydrofuro[2,3-b]pyridin-3-yl)imidazo[1,5-a]quinoxaline-8-carboxamide] registered an IC50 in test [1] of 0.257 µM. In test [2], this molecule showed an IC50 of 0.003 µM and a Selectivity of 85.7.

As to `C[C@@H]1CCN(C(=O)c2ccc3nc(N)c4cncn4c3c2)[C@@H](c2ccc3scnc3c2)C1` [Example 225, (4-aminoimidazo[1,5-a]quinoxalin-8-yl)((2R,4R)-2-(benzo[d]thiazol-5-yl)-4-methylpiperidin-1-yl)methanone], the IC50 in test [1] is over 10 µM; in test [2], 0.499 µM. Also, the Selectivity in test [2] is reported as over 20.

For the molecule `Cc1cc2nc(N)c3cncn3c2cc1C(=O)N1CC[C@@H](C)C[C@@H]1c1ccc2scnc2c1` [Example 226, (4-amino-7-methylimidazo[1,5-a]quinoxalin-8-yl)((2R,4R)-2-(benzo[d]thiazol-5-yl)-4-methylpiperidin-1-yl)methanone], the IC50 in test [1] was over 10 µM. In test [2], this molecule had an IC50 of 0.322 µM and a Selectivity of over 31.

Regarding `C[C@H]1CC[C@H](c2ccc3scnc3c2)N(C(=O)c2ccc3nc(N)c4cncn4c3c2)C1` [Example 227, (4-aminoimidazo[1,5-a]quinoxalin-8-yl)((2R,5S)-2-(benzo[d]thiazol-5-yl)-5-methylpiperidin-1-yl)methanone], in test [1], the IC50 turned out to be 3.45 µM. Moreover, in test [2], half-maximal inhibition (IC50) required 0.012 µM and the Selectivity is recorded as 283.

On to `Cc1cc2nc(N)c3cncn3c2cc1C(=O)N1C[C@@H](C)CC[C@@H]1c1ccc2scnc2c1` [Example 228, (4-amino-7-methylimidazo[1,5-a]quinoxalin-8-yl)((2R,5S)-2-(benzo[d]thiazol-5-yl)-5-methylpiperidin-1-yl)methanone], for which the IC50 in test [1] came to 5.32 µM; in test [2] it was 0.102 µM. The Selectivity in test [2] stood at 52.1.

In turn, `Cc1ncc2c(N)nc3ccc(C(=O)N(c4cnn(C)c4)[C@@H]4COc5cc(C(F)(F)F)ccc54)cc3n12` [Example 229, (S)-4-amino-1-methyl-N-(1-methyl-1H-pyrazol-4-yl)-N-(6-(trifluoromethyl)-2,3-dihydrobenzofuran-3-yl)imidazo[1,5-a]quinoxaline-8-carboxamide] showed an IC50 in test [1] of 0.934 µM. In test [2], the IC50 was 0.016 µM and the Selectivity is 58.4.

In test [1], `Cc1cc2nc(N)c3cncn3c2cc1C(=O)N(C)Cc1ccc(C(F)(F)F)cn1` [Example 230, 4-amino-N,7-dimethyl-N-((5-(trifluoromethyl)pyridin-2-yl)methyl)imidazo[1,5-a]quinoxaline-8-carboxamide] had an IC50 of 7.57 µM. Also, in test [2], the IC50 is 0.108 µM and the Selectivity is 70.1.

In test [1], `Cc1cc2nc(N)c3cnc(C)n3c2cc1C(=O)N(C)Cc1ccc(C(F)(F)F)cn1` [Example 231, 4-amino-N,1,7-trimethyl-N-((5-(trifluoromethyl)pyridin-2-yl)methyl)imidazo[1,5-a]quinoxaline-8-carboxamide] displayed an IC50 of over 10 µM. In test [2], this molecule yielded an IC50 of 0.174 µM and a Selectivity of over 57.5.

`Cn1cc(N(C(=O)c2cc3c(cc2F)nc(N)c2cccn23)[C@@H]2COc3cc(C(F)(F)F)ccc32)cn1` [Example 233, (S)-4-amino-7-fluoro-N-(1-methyl-1H-pyrazol-4-yl)-N-(6-(trifluoromethyl)-2,3-dihydrobenzofuran-3-yl)pyrrolo[1,2-a]quinoxaline-8-carboxamide] returned an IC50 in test [1] of 0.564 µM. In test [2], this molecule returned an IC50 of 0.017 µM and a Selectivity of 33.2.

The term IC50 denotes the concentration needed to halve the response being measured. A low value points to inhibition by little substance.
